The source of these data is patent US20240181125A1, “COMPOSITIONS AND METHODS FOR SCARLESS WOUND HEALING IN DIABETES” (Washington University, priority 2022, published 2024).

One data set relates to TGFβ1/p38 pathway. Briefly: Immunoblotting of p-p38 in HDFs. The format is cell-based, human. The method, then:
For in vitro tests, protein lysates were collected from HDFs. Pre-cooled cell scrapers were used to detach the cells, and the cells were re-suspended in RIPA lysis buffer with the inhibitor cocktail. For in vivo tests, wound skin tissues were washed three times with pre-cooled DPBS, dissected into small pieces, and re-suspended in RIPA lysis buffer containing protease and phosphatase inhibitors. Homogenization was then performed thereafter with an ultrasonic processor (Cole Parmer). After centrifugation at 12,000 g for 20 min, the supernatants were collected, and protein concentrations were measured using a Bradford protein assay kit (Bio-rad).
The protein samples were separated by 10% Mini-PROTEAN TGX stain-free precast gels (Bio-rad) and transferred onto an immune-blot PVDF membrane. The blots were washed three times with DPBS containing 0.1% Tween 20 (PBST), blocked with 5% milk powder in PBST buffer for 40 min, and incubated with primary antibodies at specific dilutions overnight at 4° C. The primary antibodies included rabbit GAPDH antibody (1:5000, Cell signaling), rabbit anti-a-smooth muscle actin (α-SMA) antibody (1:2000, Cell signaling), rabbit anti-phospho-Smad2(Ser465/467)/Smad3 (Ser423/425) (1:500, Cell signaling), and rabbit anti-phospho-p38 (1:500, Cell signaling). The membranes were washed three times with PBST and incubated with horseradish peroxidase (HRP)-conjugated secondary antibodies (1:2500). Immunoblots were then washed with PBST and detected with a WesternBright HRP substrate detection kit (Advansta). The ChemiDoc XPS+system (Bio-rad) was used to image the blots.

Data set [1] deals with HAECs. The experiment in a line: mRNA expression (RT-PCR), HAECs. It is filed as cell-based, human. The conditions noted are these: high glucose and TGFβ1. The method, then: (§1) To determine the mRNA expression of the cells (HDFs, HaCaTs, and HAECs) treated with TGFβ1 (10 ng/ml) or TGFβ1 (10 ng/ml)/PTβR2I (10 μg/mL) under high glucose conditions, RNA was extracted using Trizol (Invitrogen) and reverse transcribed using a cDNA synthesis kit (Applied Biosystems). Gene expression was performed by real-time RT-PCR, using Maxima SYBR Green/Fluorescein Master Mix (Thermofisher) and selected primer pairs, shown in Table 1 below. β-actin served as the housekeeping gene. The ΔΔCt method was used for data analysis.

Data set [2] deals with HDFs. The experiment in a line: mRNA expression (RT-PCR), HDFs. It is filed as cell-based, human. The conditions noted are these: high glucose and TGFβ1. The method, then: as §1
Data set [3] concerns HAECs. Briefly: 2D scratch migration assay, HAEC. To be noted: high glucose and TGFβ1, 36 hours. It is filed as cell-based, human. On the procedure: (§2) HDFs, HaCaTs, and HAECs were cultured in 6-well plates using serum-free high glucose (4.5 g/L) basal medium with 1% P/S. After the cells reached confluency, a 200-μL pipet tip was used to scrape the cell monolayer. Then 3 mL of medium containing TGFβ1 (10 ng/ml) or TGFβ1 (10 ng/ml)/PTβR2I (10 μg/mL) was added to the wells. The cells were imaged at predetermined time points using a bright-field microscope. The distances between the scratch walls were measured using ImageJ to calculate the migration ratio

Data set [4] relates to HDFs. Briefly: Cell proliferation (dsDNA) under high glucose and TGFβ1, HDF. It is filed as cell-based, human. The conditions noted are these: high glucose, TGFβ1 10 ng/ml, PTβR2I 10 μg/mL; p<0.001. The method, then:
HDFs, HaCaTs, and HAECs were seeded in 96-well plates at respective densities of 1.5×10^4 cells/mL, 2×10^4 cells/mL, and 2×10^4 cells/mL. High glucose (4.5 g/L) basal medium with 1% P/S was used for the culture. After 24 hours, TGFβ1 (10 ng/ml) or TGFβ1 (10 ng/ml)/PTβR2I (10 μg/mL) was added to the medium. The culture continued for three days. The medium was then replaced by papain solution and incubated at 60° C. for 24 hours. The dsDNA content was tested using a Quant-iT™ PicoGreen dsDNA Assay Kit (Invitrogen).

In data set [5] the test system is HaCaTs. Briefly: 2D scratch migration assay, HaCaT. The format is cell-based, human. The conditions noted are these: high glucose and TGFβ1, 48 hours. The method, then:
as §2

Data set [6] has as its system HaCaTs. Briefly: mRNA expression (RT-PCR), HaCaTs. It is filed as cell-based, human. To be noted: high glucose and TGFβ1. The method, then: as §1
Data set [7] can be described thus: In vitro release of peptide from hydrogel. To be noted: 21-day study, 37° C., DPBS; loadings 10, 20, 50 μg/mL. The format is physicochemical. On the procedure: To characterize the ECG release properties of the NIPAAm-based hydrogels disclosed herein, the following experiments were conducted. Hydrogel samples were synthesized with varying levels of ECG loading: 10 μg/mL, 20 μg/mL, and 50 μg/mL. The cumulative release of ECG from the hydrogel samples was assessed over a three-week period.
Wound dressings were fabricated by encapsulating PTβR2I in the hydrogel solution at 4° C. Briefly, PTβR2I solution was mixed with 6 wt. % hydrogel solution to reach final PTβR2I concentrations of 10 μg/mL, 20 μg/mL and 50 μg/mL. The mixtures were stirred at 4° C. for 12 hours. To determine PTβR2I release kinetics, the mixtures were first incubated at 37° C. to gel. After 1 hour, the supernatant was replaced by a release medium (DPBS with 1% P/S). The medium was then collected at pre-determined time points for 21 days, and a fresh release medium was added after each collection. The concentration of the released PTβR2I was determined by measuring the fluorescence intensity and calculating the corresponding concentration using a standard curve. The bioactivity of the released PTβR2I was evaluated by its ability to bind to the TβR2 on the HDFs. […] After 2 hours of incubation, the cells were washed three times with DPBS, and the fluorescence intensity was measured using a microplate reader (excitation/emission=485/535 nm).

Bridge positions count the residues as written; N and C are the ends. Peptide text beside a SMILES is read from it. * marks the point of attachment. FITC = O=C1OC2(c3ccc(O)cc3Oc3cc(O)ccc32)c2ccc(NC(=S)*)cc21

Regarding `CC(C)C[C@@H]1NC(=O)CNC(=O)[C@@H](NC(=O)[C@@H](N)CCC(=O)O)CSSC[C@@H](C(=O)N[C@@H](CCCCNC(=S)Nc2ccc3c(c2)C(=O)OC32c3ccc(O)cc3Oc3cc(O)ccc32)C(=O)O)NC(=O)[C@H](CC(C)C)NC(=O)[C@H](CCCNC(=N)N)NC(=O)[C@H](Cc2c[nH]c3ccccc23)NC(=O)[C@H](C(C)C)NC(=O)[C@H](CCCNC(=N)N)NC(=O)[C@H](CC(=O)O)NC(=O)[C@@H]2CCCN2C(=O)[C@H](CCCNC(=N)N)NC(=O)CNC(=O)[C@H](C(C)C)NC(=O)[C@@H]2CCCN2C(=O)[C@H](CC(C)C)NC1=O` [PTβR2I, ECGLLPVGRPDRVWRLCK-FITC] (H-ECGLLPVGRPDRVWRLCK(FITC)-OH; disulfide 2-17; N-terminus and C-terminus assumed), the p-p38 expression entry in the data set with TGFβ1/p38 pathway (high glucose, with TGFβ1) was “significantly downregulated”. For the same molecule, the p-p38 entry in the data set with TGFβ1/p38 pathway (normal glucose) is given as “did not downregulate”. Also, in the data set with HAECs [1], the HGF gene expression result is reported as “significantly enhanced” and the VEGFA gene expression entry was “significantly enhanced”. In the data set on HDFs [2], the IGF1 expression result is listed as “significantly upregulated”, the “IL1B mRNA expression” value is “significantly reduced”, the “IL6 mRNA expression” value is on record as “significantly reduced” and the “TNFA mRNA expression” value was “significantly reduced”. Moreover, the migration entry in the data set on HAECs [3] is reported as “significantly higher number of cells had migrated”. The “proliferation (dsDNA, day 3)” value in the data set with HDFs [4] is on record as “Significantly improved proliferation”. Moreover, the migration result in the data set on HaCaTs [5] is given as “significantly higher number of cells had migrated”. In the data set with HaCaTs [6], the “IL1B mRNA expression” value was “significantly reduced” and the “IL6 mRNA expression” value is reported as “significantly reduced”. For the same molecule, in data set [7], the “release profile from wound dressing” value was “initial burst release was observed on the first day, followed by a slower and sustained release until day 21”.
